Measurements as given in patent US8030481B2, “Stevioside polymorphic and amorphous forms, methods for their formulation, and uses” (The Coca-Cola Company, priority 2007, dated 2011).

How the values were obtained:
[1] = moisture content (Karl Fischer analysis); format: physicochemical
Experimental: Karl-Fischer analysis also was performed on the stevioside compositions obtained hereinbelow to determine the water content using a Mettler Toledo DL39 Karl Fischer titrator. Approximately 11-56 mg of sample were dissolved in approximately 3.5-3.7 g of dry Hydranal-Coulmat AD. Approximately 0.9-1.0 g of the resulting solution was placed in the KF titration vessel containing Hydranal-Coulomat AD and mixed for 10 seconds to ensure dissolution. The sample was titrated by means of a generator electrode which produces iodine by electrochemical oxidation: 2 I^−→I2+2e. The experiments were repeated in triplicate to ensure reproducibility.

[2] = rate of dissolution in H2O at 25° C.; format: physicochemical; details: for Rate of dissolution in H2O at 25° C.: time: time for the amount printed in the same cell (see E2); for Rate of dissolution in H2O at 25° C.: amount dissolved: within the time printed in the same cell (see E3)
[3] = room temperature; from U.S. Pat. No. 4,082,858; cited from earlier work

Row | Structure (SMILES) | Moisture content [1] [%] | Rate of dissolution in H2O at 25° C.: time [2] [min] | Rate of dissolution in H2O at 25° C.: amount dissolved [2] [% in] | rate of dissolution as compared to the polymorph forms of stevioside ([2]; in words) | water solubility [3]
1 | C=C1C[C@@]23CC[C@H]4[C@@](C)(CCC[C@@]4(C)C(=O)O[C@@H]4O[C@H](CO)[C@@H](O)[C@H](O)[C@H]4O)[C@@H]2CC[C@]1(O[C@@H]1O[C@H](CO)[C@@H](O)[C@H](O)[C@H]1O[C@@H]1O[C@H](CO)[C@@H](O)[C@H](O)[C@H]1O)C3 [Form 1, stevioside] | >5 | 30 | <0.075 |  | 
2 | C=C1C[C@@]23CC[C@H]4[C@@](C)(CCC[C@@]4(C)C(=O)O[C@@H]4O[C@H](CO)[C@@H](O)[C@H](O)[C@H]4O)[C@@H]2CC[C@]1(O[C@@H]1O[C@H](CO)[C@@H](O)[C@H](O)[C@H]1O[C@@H]1O[C@H](CO)[C@@H](O)[C@H](O)[C@H]1O)C3 [Form 2 A, stevioside] | <3 | 2 | <0.6 |  | 
3 | C=C1C[C@@]23CC[C@H]4[C@@](C)(CCC[C@@]4(C)C(=O)O[C@@H]4O[C@H](CO)[C@@H](O)[C@H](O)[C@H]4O)[C@@H]2CC[C@]1(O[C@@H]1O[C@H](CO)[C@@H](O)[C@H](O)[C@H]1O[C@@H]1O[C@H](CO)[C@@H](O)[C@H](O)[C@H]1O)C3 [Form 2B, stevioside] | <4 | <1.0 | 10.0 |  | 
4 | C=C1C[C@@]23CC[C@H]4[C@@](C)(CCC[C@@]4(C)C(=O)O[C@@H]4O[C@H](CO)[C@@H](O)[C@H](O)[C@H]4O)[C@@H]2CC[C@]1(O[C@@H]1O[C@H](CO)[C@@H](O)[C@H](O)[C@H]1O[C@@H]1O[C@H](CO)[C@@H](O)[C@H](O)[C@H]1O)C3 [Form 4, stevioside] | ~3 | <1.0 | 40.0 | improved rate of dissolution | 
5 | C=C1C[C@@]23CC[C@H]4[C@@](C)(CCC[C@@]4(C)C(=O)O[C@@H]4O[C@H](CO)[C@@H](O)[C@H](O)[C@H]4O)[C@@H]2CC[C@]1(O[C@@H]1O[C@H](CO)[C@@H](O)[C@H](O)[C@H]1O[C@@H]1O[C@H](CO)[C@@H](O)[C@H](O)[C@H]1O)C3 [stevioside, Stevioside] |  |  |  |  | approximately 1.25 g/L
